Article PMC5216056 (Nature Communications, 2017)
Values joined by “and” are separate entries in the source; they are usually repeats but may differ in a detail not shown here. Equal entries are not always repeated. “Also recorded” adds a separate entry of the source.

Assays:
D1 (h) = molecular target: T1, D1 (h) (Homo sapiens, UniProt P21728); experiment: CEREP panel; type: binding; settings: for % inhibition D1 (h): 10 µM
T1 construct: CEREP (contract assay)

sst4 (h) = molecular target: T2, sst4 (h) (Homo sapiens, UniProt P31391); experiment: CEREP panel; type: binding; settings: for % inhibition sst4 (h): 10 µM
T2 construct: CEREP (contract assay)
T2 sequence (P31391 whole entry): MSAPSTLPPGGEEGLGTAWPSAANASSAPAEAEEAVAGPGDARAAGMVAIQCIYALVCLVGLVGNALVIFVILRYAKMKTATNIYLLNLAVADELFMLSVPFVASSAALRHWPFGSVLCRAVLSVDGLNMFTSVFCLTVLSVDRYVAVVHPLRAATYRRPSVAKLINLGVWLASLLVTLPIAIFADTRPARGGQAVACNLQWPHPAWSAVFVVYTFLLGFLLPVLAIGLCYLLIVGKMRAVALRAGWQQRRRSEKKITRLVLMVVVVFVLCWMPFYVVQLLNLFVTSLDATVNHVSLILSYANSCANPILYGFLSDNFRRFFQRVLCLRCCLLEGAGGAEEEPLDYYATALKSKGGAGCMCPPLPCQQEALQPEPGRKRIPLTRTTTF

mCB2R [1] = molecular target: T3, mCB2R (Mus musculus, UniProt P47936); experiment: PathHunter β-arrestin recruitment assay; type: cell-based; settings: for Emax ± SEM β-AR recruitment mCB2R: normalized to 10 µM CP55940
T3 sequence (P47936 whole entry): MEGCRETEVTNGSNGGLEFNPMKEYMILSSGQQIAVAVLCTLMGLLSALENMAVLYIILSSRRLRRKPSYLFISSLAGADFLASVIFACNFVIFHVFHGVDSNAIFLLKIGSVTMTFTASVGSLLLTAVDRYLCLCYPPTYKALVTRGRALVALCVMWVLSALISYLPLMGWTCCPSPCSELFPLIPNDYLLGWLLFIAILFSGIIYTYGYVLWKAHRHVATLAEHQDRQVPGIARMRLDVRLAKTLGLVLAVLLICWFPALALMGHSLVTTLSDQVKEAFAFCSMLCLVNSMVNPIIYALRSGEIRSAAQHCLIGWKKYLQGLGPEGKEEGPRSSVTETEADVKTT

mCB2R [2] = molecular target: T3, mCB2R; experiment: Operational analysis of biased signalling; settings: for ΔLogR GTPγS / ΔLogR cAMP / ΔLogR β-AR: reference CP55940; for RE GTPγS / RE cAMP / RE β-AR: relative effectiveness
[3] = Pharmacokinetics, oral administration in mice; type: in vivo, mouse; settings: p.o.
C57BL6/J mice [4] = experiment: Triad assay: catalepsy; type: in vivo, mouse; settings: for catalepsy, cannabimimetic effect: 1-100 mg kg^−1 i.p., cumulative, mice
C57BL6/J mice [5] = experiment: Triad assay: antinociception; type: in vivo, mouse; settings: for antinociception, cannabimimetic effect: 1-100 mg kg^−1 i.p., cumulative, mice
C57BL6/J mice [6] = experiment: Triad assay: hypothermia; type: in vivo, mouse; settings: for hypothermia, cannabimimetic effect: 1-100 mg kg^−1 i.p., cumulative, mice
A2A (h) = molecular target: T4, A2A (h) (Homo sapiens, UniProt P29274); experiment: CEREP panel; type: binding; settings: 10 µM
T4 construct: CEREP
T4 sequence (P29274 whole entry): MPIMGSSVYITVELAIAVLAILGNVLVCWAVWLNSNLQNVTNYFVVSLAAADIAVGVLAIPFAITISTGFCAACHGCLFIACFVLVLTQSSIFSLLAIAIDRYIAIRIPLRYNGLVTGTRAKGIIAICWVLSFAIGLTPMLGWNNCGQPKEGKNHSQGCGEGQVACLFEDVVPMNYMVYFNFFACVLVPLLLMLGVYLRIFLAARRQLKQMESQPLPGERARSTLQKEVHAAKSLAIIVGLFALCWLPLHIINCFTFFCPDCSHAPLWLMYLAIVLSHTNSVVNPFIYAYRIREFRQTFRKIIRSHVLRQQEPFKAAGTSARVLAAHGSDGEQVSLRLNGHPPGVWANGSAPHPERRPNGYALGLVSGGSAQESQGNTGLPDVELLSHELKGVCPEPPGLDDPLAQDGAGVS

B2 (h) = molecular target: T5, B2 (h) (Homo sapiens, UniProt P30411); experiment: CEREP panel; type: binding; settings: 10 µM
T5 construct: CEREP
T5 sequence (P30411 1-391): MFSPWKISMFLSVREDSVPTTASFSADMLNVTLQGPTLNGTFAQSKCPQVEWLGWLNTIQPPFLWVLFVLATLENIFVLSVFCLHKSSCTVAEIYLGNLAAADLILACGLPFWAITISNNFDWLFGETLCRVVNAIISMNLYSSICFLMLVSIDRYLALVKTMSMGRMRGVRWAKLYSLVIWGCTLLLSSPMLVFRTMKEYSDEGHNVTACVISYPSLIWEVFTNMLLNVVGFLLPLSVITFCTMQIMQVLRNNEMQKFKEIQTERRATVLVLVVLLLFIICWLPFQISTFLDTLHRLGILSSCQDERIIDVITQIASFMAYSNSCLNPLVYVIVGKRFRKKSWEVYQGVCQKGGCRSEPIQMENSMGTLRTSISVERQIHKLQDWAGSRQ

BB = experiment: CEREP panel; type: binding; settings: 10 µM
BZD (peripheral) = molecular target: T6, BZD (peripheral) (Rattus norvegicus, UniProt P16257); experiment: CEREP panel; type: binding; settings: 10 µM
T6 construct: CEREP
T6 sequence (P16257 whole entry): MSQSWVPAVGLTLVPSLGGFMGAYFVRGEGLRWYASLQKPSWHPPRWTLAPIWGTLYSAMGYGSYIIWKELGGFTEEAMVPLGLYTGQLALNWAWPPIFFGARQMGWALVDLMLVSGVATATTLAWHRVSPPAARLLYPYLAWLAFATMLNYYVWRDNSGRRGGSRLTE

[7] = test system: Ca2+ channel (verapamil site); experiment: CEREP panel; type: binding; settings: 10 µM
MC4 (h) = molecular target: T7, MC4 (h) (Homo sapiens, UniProt P32245); experiment: CEREP panel; type: binding; settings: 10 µM
T7 construct: CEREP (contract assay)
T7 sequence (P32245 whole entry): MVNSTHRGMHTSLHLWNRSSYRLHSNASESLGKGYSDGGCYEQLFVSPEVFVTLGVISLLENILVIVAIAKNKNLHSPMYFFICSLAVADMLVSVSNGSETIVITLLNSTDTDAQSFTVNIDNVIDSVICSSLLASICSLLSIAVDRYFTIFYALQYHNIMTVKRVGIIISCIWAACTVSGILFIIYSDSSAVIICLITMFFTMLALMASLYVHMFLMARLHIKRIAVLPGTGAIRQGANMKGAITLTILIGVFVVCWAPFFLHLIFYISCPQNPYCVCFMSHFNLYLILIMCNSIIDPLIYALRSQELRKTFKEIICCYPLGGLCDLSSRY

MT1 (ML1A) (h) = molecular target: T8, MT1 (ML1A) (h) (Homo sapiens, UniProt P48039); experiment: CEREP panel; type: binding; settings: 10 µM
T8 construct: CEREP (contract assay)
T8 sequence (P48039 whole entry): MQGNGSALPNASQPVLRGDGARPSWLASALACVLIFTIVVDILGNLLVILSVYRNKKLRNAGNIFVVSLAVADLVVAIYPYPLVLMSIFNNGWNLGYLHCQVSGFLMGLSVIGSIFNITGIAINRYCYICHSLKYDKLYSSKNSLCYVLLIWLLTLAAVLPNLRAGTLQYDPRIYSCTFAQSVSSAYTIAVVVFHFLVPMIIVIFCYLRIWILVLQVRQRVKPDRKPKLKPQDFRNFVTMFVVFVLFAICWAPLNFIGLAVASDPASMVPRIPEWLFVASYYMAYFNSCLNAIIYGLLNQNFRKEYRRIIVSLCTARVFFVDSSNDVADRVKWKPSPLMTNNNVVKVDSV

NK2 (h) = molecular target: T9, NK2 (h) (Homo sapiens, UniProt P21452); experiment: CEREP panel; type: binding; settings: 10 µM
T9 construct: CEREP (contract assay)
T9 sequence (P21452 1-398): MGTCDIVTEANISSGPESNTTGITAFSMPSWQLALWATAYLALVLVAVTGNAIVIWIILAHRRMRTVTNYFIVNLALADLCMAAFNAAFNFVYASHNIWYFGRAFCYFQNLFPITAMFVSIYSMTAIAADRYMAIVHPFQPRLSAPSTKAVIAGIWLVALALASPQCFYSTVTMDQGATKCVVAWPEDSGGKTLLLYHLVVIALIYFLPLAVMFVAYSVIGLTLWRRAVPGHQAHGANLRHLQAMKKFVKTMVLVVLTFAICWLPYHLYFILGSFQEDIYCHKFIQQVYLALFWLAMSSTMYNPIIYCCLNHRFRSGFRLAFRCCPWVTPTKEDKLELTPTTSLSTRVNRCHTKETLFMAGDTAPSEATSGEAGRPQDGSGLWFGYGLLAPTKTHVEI

P2Y = experiment: CEREP panel; type: binding; settings: 10 µM
PDGF = experiment: CEREP panel; type: binding; settings: 10 µM
mCB2R [8] = molecular target: T3, mCB2R; experiment: [35S]GTPγS assay; type: biochemical; design: from tissue; host or cells: spleen of male C57BL/6J mice; settings: for Emax ± SEM GTPγS mCB2R: normalized to 10 µM CP55940
[9] = test system: sigma (non-selective) (h); type: binding, human; settings: 10 µM
5-HT1A (h) = molecular target: T10, 5-HT1A (h) (Homo sapiens, UniProt P08908); experiment: CEREP panel; type: binding
T10 construct: CEREP (contract assay)
T10 sequence (P08908 whole entry): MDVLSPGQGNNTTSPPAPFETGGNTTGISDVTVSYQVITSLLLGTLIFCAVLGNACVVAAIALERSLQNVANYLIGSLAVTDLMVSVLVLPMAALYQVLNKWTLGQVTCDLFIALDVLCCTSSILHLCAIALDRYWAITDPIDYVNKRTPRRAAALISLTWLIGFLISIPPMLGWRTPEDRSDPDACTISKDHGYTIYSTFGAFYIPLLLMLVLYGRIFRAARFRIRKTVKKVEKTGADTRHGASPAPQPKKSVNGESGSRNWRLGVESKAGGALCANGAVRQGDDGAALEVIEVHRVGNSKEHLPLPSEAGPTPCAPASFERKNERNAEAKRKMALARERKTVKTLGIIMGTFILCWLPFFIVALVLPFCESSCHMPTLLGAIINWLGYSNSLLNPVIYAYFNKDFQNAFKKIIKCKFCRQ

M4 (h) = molecular target: T11, M4 (h) (Homo sapiens, UniProt P08173); experiment: CEREP panel; type: binding
T11 construct: CEREP (contract assay)
T11 sequence (P08173 whole entry): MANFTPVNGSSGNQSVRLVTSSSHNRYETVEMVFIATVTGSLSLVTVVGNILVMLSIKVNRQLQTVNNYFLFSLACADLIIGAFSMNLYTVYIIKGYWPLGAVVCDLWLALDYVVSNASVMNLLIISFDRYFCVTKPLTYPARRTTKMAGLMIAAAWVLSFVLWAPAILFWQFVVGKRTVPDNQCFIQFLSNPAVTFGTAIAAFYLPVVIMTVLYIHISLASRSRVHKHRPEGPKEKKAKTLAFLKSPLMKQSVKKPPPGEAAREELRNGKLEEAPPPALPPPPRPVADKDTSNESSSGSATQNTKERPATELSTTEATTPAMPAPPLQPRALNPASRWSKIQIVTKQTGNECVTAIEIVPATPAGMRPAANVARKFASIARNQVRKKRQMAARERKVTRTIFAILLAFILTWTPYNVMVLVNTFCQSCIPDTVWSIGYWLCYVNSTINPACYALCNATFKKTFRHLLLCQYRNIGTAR

physchem = settings: pH 6.5, aqueous buffer, thermodynamic from solid
in vitro [10] = settings: both, human, microsomes, pH 7.4
in vitro [11] = settings: male, C57BL/6J, mouse, microsomes, pH 7.4
COX2 (h) = molecular target: T12, COX2 (h) (Homo sapiens, UniProt P35354); experiment: CEREP panel, enzyme and cell-based assays; type: biochemical; settings: 10 µM
T12 construct: CEREP (contract assay)
T12 sequence (P35354 18-604): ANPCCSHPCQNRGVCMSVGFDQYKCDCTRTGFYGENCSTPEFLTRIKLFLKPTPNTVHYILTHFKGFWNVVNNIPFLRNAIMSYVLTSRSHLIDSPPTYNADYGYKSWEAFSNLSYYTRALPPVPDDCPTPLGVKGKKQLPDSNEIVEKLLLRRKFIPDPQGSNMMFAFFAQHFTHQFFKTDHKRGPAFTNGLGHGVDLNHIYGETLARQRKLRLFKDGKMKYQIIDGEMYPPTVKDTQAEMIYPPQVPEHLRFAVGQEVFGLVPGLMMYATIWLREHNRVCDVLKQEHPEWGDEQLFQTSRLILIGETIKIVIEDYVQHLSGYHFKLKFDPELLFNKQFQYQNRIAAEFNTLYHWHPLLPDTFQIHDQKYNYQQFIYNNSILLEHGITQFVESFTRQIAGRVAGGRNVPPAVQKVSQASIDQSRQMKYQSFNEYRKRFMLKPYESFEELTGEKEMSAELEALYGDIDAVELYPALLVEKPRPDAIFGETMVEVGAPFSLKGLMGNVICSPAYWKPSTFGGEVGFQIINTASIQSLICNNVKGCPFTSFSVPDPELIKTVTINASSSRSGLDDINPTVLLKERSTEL

Cl- channel (GABA-gated) = experiment: CEREP panel; type: binding; settings: 10 µM
[12] = pretreatment (SR141716A 3 mg kg^−1, HU910 30 mg kg^−1) before HU210 1.7 mg kg^−1

T1 sequence (P21728 whole entry): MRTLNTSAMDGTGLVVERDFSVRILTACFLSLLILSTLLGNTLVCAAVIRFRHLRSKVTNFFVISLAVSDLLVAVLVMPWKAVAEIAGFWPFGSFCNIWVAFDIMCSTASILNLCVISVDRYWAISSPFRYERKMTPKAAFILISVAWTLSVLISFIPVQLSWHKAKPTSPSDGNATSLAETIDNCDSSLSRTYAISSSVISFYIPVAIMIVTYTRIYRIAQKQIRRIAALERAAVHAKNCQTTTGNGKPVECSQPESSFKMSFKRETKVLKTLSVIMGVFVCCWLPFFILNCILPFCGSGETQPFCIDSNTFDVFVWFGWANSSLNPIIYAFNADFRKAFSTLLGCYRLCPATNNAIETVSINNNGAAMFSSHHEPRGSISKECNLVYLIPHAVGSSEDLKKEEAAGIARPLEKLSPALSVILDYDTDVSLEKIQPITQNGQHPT

## Cc1c(C(=O)NN2CCCCC2)nn(-c2ccc(Cl)cc2Cl)c1-c1ccc(I)cc1 [AM251]
D1 (h)
  % inhibition D1 (h): 58%
sst4 (h)
  % inhibition sst4 (h): 51%

## CCCCCCC(C)(C)c1cc(OC)c(C2=C[C@H]3CC[C@]2(CO)C3(C)C)c(OC)c1 [HU910]
mCB2R [1]
  pEC50 ± SEM β-AR recruitment mCB2R: 6.78 ± 0.16
  Emax ± SEM β-AR recruitment mCB2R: 66 ± 1%
mCB2R [2]
  GTPγS-cAMP bias factor (BF): 23.6
  GTPγS-cAMP ΔΔlogR: 1.37 ± 0.24
  LogR GTPγS: 7.15 ± 0.07
  LogR cAMP: 8.48 ± 0.18
  LogR β-AR: 6.57 ± 0.11
  β-AR-GTPγS bias factor (BF): 0.18
  β-AR-GTPγS ΔΔlogR: -0.75 ± 0.15
  β-AR-cAMP bias factor (BF): 4.2
  β-AR-cAMP ΔΔlogR: 0.63 ± 0.26
  ΔLogR GTPγS: -0.67 ± 0.08
  ΔLogR cAMP: -2.04 ± 0.23
  ΔLogR β-AR: -1.41 ± 0.12
  RE GTPγS: 0.22
  RE cAMP: 0.009
  RE β-AR: 0.04
[3]
  AUCinf: 904 ng·h/mL
  AUCinf/dose: 301 kg·ng·h/mL/mg
  AUClast: 895 ng·h/mL
  Cmax: 495 ng/mL
  T1/2: 5.2 h
  Tmax: 1.0 h
C57BL6/J mice [4]
  catalepsy, cannabimimetic effect: did not produce detectable; also recorded: lacked appreciable pharmacological effects
C57BL6/J mice [4]; [12]
  antagonism of HU210-induced catalepsy: did not significantly reduce
C57BL6/J mice [5]
  antinociception, cannabimimetic effect: did not produce detectable; also recorded: lacked appreciable pharmacological effects
C57BL6/J mice [5]; [12]
  antagonism of HU210-induced antinociception: did not significantly reduce
C57BL6/J mice [6]
  hypothermia, cannabimimetic effect: did not produce detectable; also recorded: lacked appreciable pharmacological effects
C57BL6/J mice [6]; [12]
  antagonism of HU210-induced hypothermia: did not significantly reduce
A2A (h)
  % inhibition A2A (h): 50%
B2 (h)
  % inhibition B2 (h): -39%
BB
  % inhibition BB: 18%
BZD (peripheral)
  % inhibition BZD (peripheral): -11%
[7]
  % inhibition Ca2+ channel (verapamil site): 7%
MC4 (h)
  % inhibition MC4 (h): 13%
MT1 (ML1A) (h)
  % inhibition MT1 (ML1A) (h): 52%
NK2 (h)
  % inhibition NK2 (h): 31%
P2Y
  % inhibition P2Y: -7%
PDGF
  % inhibition PDGF: 10%
other
  Plasma protein binding human: 1.8 %free
mCB2R [8]
  pEC50 ± SEM GTPγS mCB2R: 7.27 ± 0.08
  Emax ± SEM GTPγS mCB2R: 78 ± 4%

## CCCC(C)(C)c1ccc2c(c1)OC(C)(C)[C@@H]1CC=C(C)C[C@@H]21 [JWH133]
mCB2R [1]
  pEC50 ± SEM β-AR recruitment mCB2R: 6.80 ± 0.17
  Emax ± SEM β-AR recruitment mCB2R: 63 ± 7%
mCB2R [2]
  GTPγS-cAMP bias factor (BF): 50.9
  GTPγS-cAMP ΔΔlogR: 1.71 ± 0.18
  LogR GTPγS: 7.07 ± 0.05
  LogR cAMP: 8.07 ± 0.09
  LogR β-AR: 6.57 ± 0.12
  β-AR-GTPγS bias factor (BF): 0.21
  β-AR-GTPγS ΔΔlogR: -0.67 ± 0.15
  β-AR-cAMP bias factor (BF): 10.9
  β-AR-cAMP ΔΔlogR: 1.04 ± 0.21
  ΔLogR GTPγS: -0.75 ± 0.07
  ΔLogR cAMP: -2.45 ± 0.17
  ΔLogR β-AR: -1.42 ± 0.13
  RE GTPγS: 0.18
  RE cAMP: 0.004
  RE β-AR: 0.04
C57BL6/J mice [4]
  catalepsy, cannabimimetic effect: did not produce detectable; also recorded: lacked appreciable pharmacological effects
C57BL6/J mice [5]
  antinociception, cannabimimetic effect: did not produce detectable; also recorded: lacked appreciable pharmacological effects
C57BL6/J mice [6]
  hypothermia, cannabimimetic effect: did not produce detectable; also recorded: lacked appreciable pharmacological effects
A2A (h)
  % inhibition A2A (h): 4%
B2 (h)
  % inhibition B2 (h): -2%
BB
  % inhibition BB: 0%
BZD (peripheral)
  % inhibition BZD (peripheral): -1%
[7]
  % inhibition Ca2+ channel (verapamil site): 1%
MC4 (h)
  % inhibition MC4 (h): -10%
MT1 (ML1A) (h)
  % inhibition MT1 (ML1A) (h): -4%
NK2 (h)
  % inhibition NK2 (h): 36%
P2Y
  % inhibition P2Y: 3%
PDGF
  % inhibition PDGF: -12%
[9]
  % inhibition sigma (non-selective) (h): 2%
mCB2R [8]
  pEC50 ± SEM GTPγS mCB2R: 7.03 ± 0.14
  Emax ± SEM GTPγS mCB2R: 103 ± 7%

## CN1CCCC[C@H]1Cn1cc(C(=O)c2cc([N+](=O)[O-])ccc2I)c2ccccc21 [(S)-AM1241]
[9]
  % inhibition sigma (non-selective) (h): 101%
5-HT1A (h); 10 µM
  % inhibition 5-HT1A (h): 74%
M4 (h); 10 µM
  % inhibition M4 (h): 74%
sst4 (h)
  % inhibition sst4 (h): 63%
other
  Plasma protein binding human: 0.5 %free

## Cc1ccc2c(c1)Cc1c(C(=O)NN3CCCCC3)nn(-c3ccc(Cl)cc3Cl)c1-2 [Gp-1a]
[9]
  % inhibition sigma (non-selective) (h): 51%
D1 (h)
  % inhibition D1 (h): 63%

## CCCCC/C=C\C/C=C\C/C=C\C/C=C\CCCC(=O)OC(CO)CO [2-AG, 2-arachidonoyl glycerol]
physchem
  solubility kinetic: < 0.5 µg/mL and < 1.3 µM
In vitro [10]
  microsomal CLint: 13 µL/min/mg
In vitro [11]
  microsomal CLint: 12 µL/min/mg

## Cc1c(C(=O)c2cccc3ccccc23)c2cccc3c2n1[C@H](CN1CCOCC1)CO3 [WIN55212-2]
sst4 (h)
  % inhibition sst4 (h): 64%
COX2 (h)
  % inhibition COX2 (h): 50%

## CCCCC/C=C\C/C=C\C/C=C\C/C=C\CCCC(=O)NCCO [Anandamide, N-arachidonoylethanolamine]
physchem
  solubility kinetic: < 1.1 µg/mL and < 3.2 µM
In vitro [10]
  microsomal CLint: 47 µL/min/mg
In vitro [11]
  microsomal CLint: 222 µL/min/mg

## COc1ccc(C(=O)c2c(C)n(CCN3CCOCC3)c3cc(I)ccc23)cc1 [AM630]
COX2 (h)
  % inhibition COX2 (h): 96%
Cl- channel (GABA-gated)
  % inhibition Cl- channel (GABA-gated): 87%

## CCCCCCC(C)(C)c1ccc([C@@H]2C[C@H](O)CC[C@H]2CCCO)c(O)c1 [CP55940]
mCB2R [1]
  EC50: 0.00955 µM
mCB2R [1]; read-out: Emax ± SEM β-AR recruitment mCB2R
  Emax: 96 ± 1%
mCB2R [2]
  GTPγS-cAMP bias factor (BF): 1
  GTPγS-cAMP ΔΔlogR: 0 ± 0.21
  LogR GTPγS: 7.82 ± 0.05
  LogR cAMP: 10.52 ± 0.14
  LogR β-AR: 8.0 ± 0.06
  β-AR-GTPγS bias factor (BF): 1
  β-AR-GTPγS ΔΔlogR: 0 ± 0.10
  β-AR-cAMP bias factor (BF): 1
  β-AR-cAMP ΔΔlogR: 0 ± 0.21
  ΔLogR GTPγS: 0 ± 0.07
  ΔLogR cAMP: 0 ± 0.20
  ΔLogR β-AR: 0 ± 0.08
  RE GTPγS: 1.00
  RE cAMP: 1.00
  RE β-AR: 1.00
D1 (h)
  inhibition at 10 µM: 77%
5-HT1A (h)
  inhibition at 10 µM: 92%
M4 (h)
  inhibition at 10 µM: 55%
sst4 (h)
  inhibition at 10 µM: 63%
In vitro [10]
  microsomal CLint: 80 µL/min/mg
In vitro [11]
  microsomal CLint: 172 µL/min/mg
mCB2R [8]
  EC50: 0.0162 µM
mCB2R [8]; read-out: Emax ± SEM GTPγS mCB2R
  Emax: 102 ± 1%
